From ChEMBL document CHEMBL1201862, “PubChem BioAssay data set” (2004)
Calls of active or inactive are those of the source.

Assays:
[1] = molecular target: Cytochrome P450 2C9 (Homo sapiens, UniProt P11712)
[2] = molecular target: T1, Cytochrome P450 1A2 (Homo sapiens, UniProt P05177);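 note: PubChem cytochrome P450 panel assay, CYP1A2 panel member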
T1 sequence (P05177 whole entry): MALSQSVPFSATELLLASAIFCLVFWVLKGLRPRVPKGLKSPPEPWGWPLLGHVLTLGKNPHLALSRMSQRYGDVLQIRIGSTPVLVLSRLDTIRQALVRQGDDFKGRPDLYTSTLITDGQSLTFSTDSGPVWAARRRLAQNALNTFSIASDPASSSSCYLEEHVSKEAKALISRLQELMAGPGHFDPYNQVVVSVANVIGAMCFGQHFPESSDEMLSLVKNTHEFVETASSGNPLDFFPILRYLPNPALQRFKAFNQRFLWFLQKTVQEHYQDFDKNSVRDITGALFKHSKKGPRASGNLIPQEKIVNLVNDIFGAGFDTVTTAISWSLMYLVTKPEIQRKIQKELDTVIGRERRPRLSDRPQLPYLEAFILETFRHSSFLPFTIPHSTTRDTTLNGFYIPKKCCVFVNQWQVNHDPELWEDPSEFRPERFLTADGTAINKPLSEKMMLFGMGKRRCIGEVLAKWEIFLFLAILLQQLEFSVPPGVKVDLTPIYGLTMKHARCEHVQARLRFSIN

[3] = molecular target: Cytochrome P450 2C19 (Homo sapiens, UniProt P33261); experiment: Cytochrome panel assay with activity outcomes. Panel member name: p450-cyp2c19 Compounds with AC50 equal or less than 10 uM are considered active; type: functional; conditions: read-out: AC50
[4] = molecular target: Cytochrome P450 2D6 (Homo sapiens, UniProt P10635);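 note: CYP2D6 member of a cytochrome P450 panel assay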
[5] = inhibitors of intracellular T. cruzi replication, confirmation, NIH3T3 host cells, beta-gal luminescence (AID 2044); type: functional, cell-based;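 note: intracellular parasites grown in NIH/3T3 mouse fibroblasts as host cells; luminescent beta-galactosidase reporter signal from transgenic T. cruzi replicating inside host cells; inhibitors lower the luminescence signal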
[6] = cytotoxicity toward NIH3T3 fibroblasts, dose response, counter-screen, cell-based, ATP luminescence, mouse fibroblasts (AID 2010); type: functional;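 note: cells exposed to compound for about 90 hours before reading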

Cytochrome P450 2D6, sequence (P10635 whole entry): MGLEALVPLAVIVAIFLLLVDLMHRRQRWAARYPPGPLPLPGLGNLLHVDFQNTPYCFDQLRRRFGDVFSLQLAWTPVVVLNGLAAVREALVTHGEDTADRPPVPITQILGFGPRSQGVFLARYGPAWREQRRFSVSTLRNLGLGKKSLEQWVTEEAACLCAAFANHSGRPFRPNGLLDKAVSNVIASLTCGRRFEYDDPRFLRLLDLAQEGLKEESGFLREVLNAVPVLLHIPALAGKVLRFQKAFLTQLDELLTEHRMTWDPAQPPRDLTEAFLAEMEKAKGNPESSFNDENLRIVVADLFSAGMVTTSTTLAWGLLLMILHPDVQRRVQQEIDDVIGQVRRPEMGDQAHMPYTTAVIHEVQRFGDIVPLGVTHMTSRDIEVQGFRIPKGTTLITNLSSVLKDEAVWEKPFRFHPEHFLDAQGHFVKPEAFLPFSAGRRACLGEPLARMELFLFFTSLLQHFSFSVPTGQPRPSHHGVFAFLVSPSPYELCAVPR
Cytochrome P450 2C19, sequence (P33261 whole entry): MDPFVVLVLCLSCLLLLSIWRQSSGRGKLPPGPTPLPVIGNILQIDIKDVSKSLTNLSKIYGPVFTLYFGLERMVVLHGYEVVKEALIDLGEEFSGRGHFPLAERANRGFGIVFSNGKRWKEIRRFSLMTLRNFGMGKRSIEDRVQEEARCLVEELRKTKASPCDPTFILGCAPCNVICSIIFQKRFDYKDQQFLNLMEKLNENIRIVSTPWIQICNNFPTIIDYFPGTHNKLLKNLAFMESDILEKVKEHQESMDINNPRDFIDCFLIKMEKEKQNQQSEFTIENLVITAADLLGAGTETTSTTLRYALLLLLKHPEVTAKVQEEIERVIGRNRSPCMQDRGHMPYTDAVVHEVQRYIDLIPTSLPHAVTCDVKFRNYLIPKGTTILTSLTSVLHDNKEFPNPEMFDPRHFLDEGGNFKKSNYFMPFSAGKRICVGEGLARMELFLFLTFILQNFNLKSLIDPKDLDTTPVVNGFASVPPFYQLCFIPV
Cytochrome P450 2C9, sequence (P11712 whole entry): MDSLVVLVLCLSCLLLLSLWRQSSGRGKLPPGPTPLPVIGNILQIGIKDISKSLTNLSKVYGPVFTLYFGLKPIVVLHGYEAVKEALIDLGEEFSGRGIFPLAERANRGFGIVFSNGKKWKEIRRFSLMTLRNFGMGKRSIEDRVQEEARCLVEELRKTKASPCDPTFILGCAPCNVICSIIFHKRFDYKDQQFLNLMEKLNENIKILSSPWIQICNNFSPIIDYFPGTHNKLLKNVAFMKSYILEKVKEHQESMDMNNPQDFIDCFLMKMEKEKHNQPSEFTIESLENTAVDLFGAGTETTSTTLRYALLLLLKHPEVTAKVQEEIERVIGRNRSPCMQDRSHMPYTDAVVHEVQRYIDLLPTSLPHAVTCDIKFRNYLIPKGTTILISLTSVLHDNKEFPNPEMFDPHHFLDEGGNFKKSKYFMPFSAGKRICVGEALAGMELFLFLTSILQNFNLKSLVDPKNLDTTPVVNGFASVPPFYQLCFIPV

Structure (SMILES) | AC50 [2] | AC50 [3] | also measured
COc1ccc(-n2nnnc2-c2cn(C)nc2C(F)(F)F)cc1 | 25.1 µM (inconclusive) |  | AC50 [1]: 28.2 µM (inconclusive)
CC1CN(C(=S)NC(=O)c2ccc([N+](=O)[O-])cc2)CC(C)O1 (stereo unspecified) | 12.6 µM (inconclusive) | 31.6 µM (inconclusive) | 
C/C(Cn1nc([N+](=O)[O-])cc1C)=N\NC(=O)c1ccc(O)cc1O | 25.1 µM (inconclusive) | 7.08 µM (inconclusive) | 
O=C(c1cnccn1)N1CCC2(CCCN(C(c3ccccc3)c3ccccc3)C2)CC1 | 20 µM (inconclusive) | 25.1 µM (inconclusive) | 
c1ccc(Nc2nc(-c3ccc4c(c3)OCO4)nc3ccccc23)cc1 |  |  | AC50 [4]: 39.8 µM (inconclusive)
CC(=O)Oc1ccccc1C(=O)Oc1ccccc1C(=O)O [DIPLOSALSALATE] | 12.6 µM (inconclusive) |  | AC50 [1]: 15.8 µM (inconclusive)
O=[N+]([O-])c1ccc(NN=C2c3ccccc3Cc3ccccc32)c([N+](=O)[O-])c1 | 0.794 µM (inconclusive) |  | 
O=C(NCCc1c[nH]c2ccccc12)[C@H]1C[C@@H]1[C@H](NP(=O)(c1ccccc1)c1ccccc1)c1ccccc1 | 12.6 µM (inconclusive) |  | 
COc1ccc(C(=O)Nc2cccc(/C(C)=N/NC(=O)c3ccc([N+](=O)[O-])cc3)c2)cc1OC |  | 31.6 µM (inconclusive) | AC50 [1]: 2.51 µM (inconclusive)
CCN=C(Nc1cccc(F)c1)SC1CC(=O)N(c2ccc(OC)cc2)C1=O (stereo unspecified) |  |  | AC50 [4]: 14.1 µM (inconclusive)
COC(=O)[C@@]1(Cc2ccccc2)[C@H]2c3cc(C(=O)N(C)C)n(CCN4CNCC4=O)c3C[C@H]2CN1C(=O)c1ccccc1 | 5.01 µM (inconclusive) | 31.6 µM (inconclusive) | AC50 [1]: 25.1 µM (inconclusive)
c1cc(CN2CC3(CCNCC3)C2)ccn1 |  |  | AC50 [4]: 39.8 µM (inconclusive)
COC(=O)[C@H]1C(=O)[C@H](C(=O)OC)[C@@H]2CC[C@H]1N2C | 0.794 µM (inconclusive) |  | 
CNC(=O)COC(=O)c1cc2c(C)nn(-c3ccc(F)cc3)c2s1 |  | 39.8 µM (inconclusive) | AC50 [1]: 1.12 µM (inconclusive)
Cc1nnc(NC(=O)CCC(=O)NCc2cccs2)s1 |  | 22.4 µM (inconclusive) | AC50 [1]: 31.6 µM (inconclusive)
NC(=O)COc1c(F)cc(SCCNS(=O)(=O)c2ccccc2)cc1F | 31.6 µM (inconclusive) |  | AC50 [1]: 31.6 µM (inconclusive)
CCCN[C@@H](C)C(=O)Nc1c(C)csc1C(=O)OC | 12.6 µM (inconclusive) |  | 
CC(C)n1nnnc1SCC(=O)NCCc1ccccc1 |  |  | AC50 [4]: 25.1 µM (inconclusive)
CCOC(=O)c1cc(C(=O)OCC)cc(-n2cc(O)c(C(=O)OCC)n2)c1 |  |  | AC50 [4]: 3.16 µM (inconclusive)
Cc1ccccc1NC(=O)CSc1nc(N2CCCCC2)nc(N2CCCCC2)n1 | 3.55 µM (inconclusive) |  | AC50 [1]: 0.00891 µM (inconclusive)
CN(C)c1nc(NCc2ccccc2)nc(N/N=C/c2ccc(Cl)cc2Cl)n1 |  | 1 µM (inconclusive) | 
Cc1ccc(NC(=S)N2CCN(CCN3C(=O)c4cccc5cccc(c45)C3=O)CC2)cc1 | 20 µM (inconclusive) | 15.8 µM (inconclusive) | EC50 [5]: 0.855 µM (active); EC50 [6]: > 60 µM (not active)
O=C(CNS(=O)(=O)c1ccc(Br)s1)N1CCC(N2CCCCC2)CC1 |  | 20 µM (inconclusive) | 
CCNc1ncc2nc(C)c(=O)n(Cc3cccc(OC)c3)c2n1 |  |  | AC50 [4]: 25.1 µM (inconclusive)
COc1cc([N+](=O)[O-])ccc1NC(=O)CCCOc1cccc(C)c1 |  |  | AC50 [4]: 15.8 µM (inconclusive)
COc1ccc2[nH]cc(CCNc3ncncc3-c3ccc(C(=O)N(C)C)cc3)c2c1 | 20 µM (inconclusive) |  | 
Cc1ccc(-c2cc(-c3nnc(SCC(=O)NC(C)C(C)C)n3N)c3ccccc3n2)cc1 (stereo unspecified) | 31.6 µM (inconclusive) | 15.8 µM (inconclusive) | 
c1ccc(-c2ccccn2)nc1 | 25.1 µM (inconclusive) |  | 
O=C(NNC(=O)c1cccnc1)Nc1cccc2ccccc12 | 14.1 µM (inconclusive) | 28.2 µM (inconclusive) | 
